Literature values, collected in patent US20110189283A1, “APPETISING MEDICAMENTS FOR ORAL ADMINISTRATION IN SOLID FORM FOR PREVENTION AND/OR TREATMENT OF CARDIAC INSUFFICIENCY IN ANIMALS” (VIRBAC, priority 2008, published 2011).

Tests used:
[1] = tested on: phosphodiesterase type III; details: after oral administration
[2] = administered during or shortly after feeding

Compound	duration of positive inotropic effects [1]	effect of feeding on bioavailability [2]	dose administered found in the feces (dogs)	dose administered found in the urine (dogs)	time to state of equilibrium (multiple oral administrations)	accumulation (multiple oral administrations of 2 mg per kg for 10 consecutive days)	effect of simultaneous taking of foods on bioavailability (oral)	absorption versus amount administered (oral administration of 2 to 4 mg/kg)	metabolism by the liver (to 7α-thiomethylspironolactone and canrenone, dogs)
COc1ccc(-c2nc3ccc(C4=NNC(=O)CC4C)cc3[nH]2)cc1 (stereo not drawn) [pimobendan, 4,5-dihydro-6-[2-(4-methoxyphenyl)-1H-benzimidazol-5-yl]-5-methyl-3(2H)-pyridazinone]	8 h	considerably reduced							
CC(=O)S[C@@H]1CC2=CC(=O)CC[C@]2(C)[C@H]2CC[C@@]3(C)[C@@H](CC[C@@]34CCC(=O)O4)[C@H]12 [spironolactone]			70%	20%	2 days	no accumulation is observed	considerably increases	increases linearly	rapidly and completely metabolized
